Entries after “also recorded” stand apart in the source; their conditions may differ. No end group written: not given here.
Tests used:
[1] = tested on: murine dextran sodium sulfate (DSS)-induced colitis; test: Dextran sodium sulfate (DSS)-induced colitis in mice; assay type: in vivo, C57BL6 mice
Method: (§1) Inbred C57BL6 mice, 8 to 12 weeks old, were purchased from Charles River Breeding Laboratories (Calco, Italy). Experiments were performed following protocols approved by the institutional animal committee and in accordance with European Economic Community Council Directive as well as institutional animal care and use guidelines.
DSS is a water soluble, negatively charged sulfated polysaccharide with a highly variable molecular weight ranging from 5 to 1400 kDa. Murine colitis results from administration of 40-50 kDa DSS added to drinking water. […] We have added 40-50 kDa DSS to sterilized drinking water at 3% for a period of 6 days to induce acute colitis. Concomitantly, Tα1 at 200 μg/kg was intraperitoneally injected daily, as illustrated in FIG. 1A. Control mice receive vehicle alone. Surviving mice were sacrificed at 10 days after the initiation of colitis.
(§2) In both models, animals were monitored daily for appearance of diarrhea, fecal blood, loss of body weight and survival. At the end of the experiment, surviving mice were sacrificed, the colon was excised, and evaluated for macroscopic damage and local immune parameters
(§3) Freshly isolated colons were fixed in formalin and embedded in paraffin. H&E staining was performed using a standard protocol. For the quantitative histological analysis, five criteria were used to grade each section of the intestine: (i) severity of inflammation, (ii) percent of area affected by inflammation, (iii) degree of hyperplasia, (iv) depth of the lesion, and (v) ulceration.
The levels of cytokines in the colon homogenates were determined by specific ELISA (R&D Systems).
(§4) Student's t-test, one- or two-way ANOVA with Bonferroni post-hoc test were used to determine the statistical significance. Significance was defined as p<0.05. Data are pooled results (mean±SEM) or representative images from three experiments.

[2] = tested on: murine model of checkpoint inhibitor-mediated colitis (CIC); test: Checkpoint inhibitor-mediated colitis (CIC) model (DSS + anti-CTLA-4 mAb) in mice; assay type: in vivo, C57BL6 mice
Method: as §1
The mice received 3% DSS in their drinking water for 8 days and 100 μg of anti-CTLA-4 mAb (BioXcell, USA) or isotype control antibody intraperitoneally at the beginning of the experiment (day 0) and 4 days after (day +4). Surviving mice were sacrificed at 16 days. Tα1 at 200 μg/kg was intraperitoneally injected every other day, as illustrated in FIG. 2A.
as §2, §3, §4

B16 melanoma = test: Tumor challenge with B16 melanoma under anti-CTLA-4 mAb; assay type: in vivo, mice; details: 100 μg anti-CTLA-4 mAb days 0, 6, 10 with Tα1 200 μg/kg i.p.; FIG. 2E
Method: B16-F0 (ATCC® CRL-6322™ were cultured in RPMI Medium1640 (Gibco, Life Technologies, USA) containing 10% FBS (Gibco, USA), 100 U/mL penicillin, and 100 μg/mL streptomycin, at 37° C. in a humidified atmosphere of 5% CO2. 2×10^5 B16 tumor cells were subcutaneously injected into the right flanks of the mice. The mice were injected intraperitoneally with 100 μg of anti-CTLA-4 mAb, at 0, 6, and 10 days post-tumor implantation and concomitantly with Tα1 at 200 μg/kg intraperitoneally. Tumor size was measured with a caliper and calculated as described (Wang et al., 2019).

[3] = steroid and infliximab refractory cases; recent reports; cited from earlier work
[4] = ELISA of colon homogenates, FIG. 1F

Substance: Thymosin alpha 1 (Ac-SDAAVDTSSEITTKDLKEKKEVVEEAEN; UniProt P06454 2-29, looked up) [Tα1, naturally-occurring polypeptide of 28 amino acid; from CRIBI Biotechnology, supplied as purified sterile, lyophilized, acetylated polypeptide]
- loss of body weight ([1]; 3% DSS 6 days, Tα1 200 μg/kg intraperitoneally daily, FIG. 1B): prevented the loss of body weight
- production of IL-10 in the colon ([1]; ELISA of colon homogenates, FIG. 1E): induced
- production of pro-inflammatory cytokine IL-1S [1, 4]: decreased the production
- production of pro-inflammatory cytokine IL-17A [1, 4]: decreased the production
- expression of IDO1 in the colon ([1]; RT-PCR, at sacrifice, FIG. 1E): induced the expression of IDO1
- survival of mice ([1]; Tα1 200 μg/kg i.p. daily, FIG. 1C): increased survival of mice
- colon histopathology ([1]; Tα1 200 μg/kg i.p. daily, at sacrifice, FIG. 1D): ameliorated colon histopathology
- loss of body weight ([2]; CIC model (3% DSS 8 days + anti-CTLA-4 mAb), Tα1 200 μg/kg i.p. every other day, FIG. 2B): not significantly prevented
- survival of mice ([2]; CIC model, Tα1 200 μg/kg i.p. every other day, FIG. 2C): significantly increased the survival of mice
- architecture structure of the colon in surviving mice ([2]; CIC model, compared to untreated animals, FIG. 2D): recovery of the normal architecture structure of the colon
- mice surviving at 16 days post initiation of colitis ([2]; CIC model, time at which untreated mice have all died, FIG. 2C): majority of mice surviving
- growth kinetics of B16 melanoma tumors / antitumoral efficacy afforded by anti-CTLA-4 mAb (B16 melanoma): does not affect the antitumoral efficacy; also recorded: did not affect the growth kinetics of the tumors

Substance: Vedolizumab: therapy reported as more gut specific and efficacious in steroid and infliximab refractory checkpoint inhibitor colitis
- efficacy in refractory CIC [3]: efficacious in steroid and infliximab refractory cases
